This note sets out measurements from ChEMBL document CHEMBL4020784, “Syntheses of prodrug-type phosphotriester oligonucleotides responsive to intracellular reducing environment for improvement of cell membrane permeability and nuclease resistance” (Bioorg Med Chem Lett, 2017).

Series [1] in a line: Metabolic stability in 10% fetal bovine serum assessed as compound remaining at 37 degC by RP-HPLC method. The class given is ADME, cell-free, Bos taurus. Conditions: cattle.
Series [2] is described as follows: Chemical stability in CD3CN up to 7 days by 31P NMR method. The class given is physicochemical. Particulars: read-out: Stability.

Some results are limits rather than exact numbers.

`Cc1cn([C@H]2C[C@H](OP(=O)(O)OC[C@H]3O[C@@H](n4cc(C)c(=O)[nH]c4=O)C[C@@H]3OP(=O)(O)OC[C@H]3O[C@@H](n4cc(C)c(=O)[nH]c4=O)C[C@@H]3OP(=O)(O)OC[C@H]3O[C@@H](n4cc(C)c(=O)[nH]c4=O)C[C@@H]3OP(=O)(O)OC[C@H]3O[C@@H](n4cc(C)c(=O)[nH]c4=O)C[C@@H]3OP(=O)(O)OC[C@H]3O[C@@H](n4cc(C)c(=O)[nH]c4=O)C[C@@H]3OP(=O)(O)OC[C@H]3O[C@@H](n4cc(C)c(=O)[nH]c4=O)C[C@@H]3OP(=O)(O)OC[C@H]3O[C@@H](n4cc(C)c(=O)[nH]c4=O)C[C@@H]3OP(=O)(O)OC[C@H]3O[C@@H](n4cc(C)c(=O)[nH]c4=O)C[C@@H]3OP(=O)(O)OC[C@H]3O[C@@H](n4cc(C)c(=O)[nH]c4=O)C[C@@H]3O)[C@@H](CO)O2)c(=O)[nH]c1=O`: the half-life (in general, the time needed for the level to fall by half in the phase considered) in series [1] is less than 1.5 h.
As to `Cc1cn([C@H]2C[C@H](OP(=O)(O)OC[C@H]3O[C@@H](n4cc(C)c(=O)[nH]c4=O)C[C@@H]3OP(=O)(O)OC[C@H]3O[C@@H](n4cc(C)c(=O)[nH]c4=O)C[C@@H]3OP(=O)(O)OC[C@H]3O[C@@H](n4cc(C)c(=O)[nH]c4=O)C[C@@H]3OP(=O)(O)OC[C@H]3O[C@@H](n4cc(C)c(=O)[nH]c4=O)C[C@@H]3OP(=O)(O)OC[C@H]3O[C@@H](n4cc(C)c(=O)[nH]c4=O)C[C@@H]3OP(=O)(O)OC[C@H]3O[C@@H](n4cc(C)c(=O)[nH]c4=O)C[C@@H]3OP(=O)(O)OC[C@H]3O[C@@H](n4cc(C)c(=O)[nH]c4=O)C[C@@H]3OP(=O)(O)OC[C@H]3O[C@@H](n4cc(C)c(=O)[nH]c4=O)C[C@@H]3OP(=O)(OC[C@H]3O[C@@H](n4cc(C)c(=O)[nH]c4=O)C[C@@H]3O)O[C@@H]3CSSC[C@H]3OCc3ccccc3)[C@@H](CO)O2)c(=O)[nH]c1=O` (stereo partly drawn), the half-life in series [1] was greater than 23.3 h.
Take `COc1ccc(C(OC[C@H]2O[C@@H](n3cc(C)c(=O)[nH]c3=O)C[C@@H]2OP(OC2CSSCC2OCc2ccccc2)N(C(C)C)C(C)C)(c2ccccc2)c2ccc(OC)cc2)cc1` (stereo partly drawn): the remaining at 168 h in series [2] was determined as 95%.
